Eight molecules from patent US20250114338A1, “TETRAHYDRO-PYRIDO[3,4-b]INDOLE ESTROGEN RECEPTOR MODULATORS AND USES THEREOF” (Genentech, Inc., priority 2014, published 2025) can be followed below.

For test [1], the target named is estrogen receptor alpha (ESR1) in MCF7 breast cancer cells (Homo sapiens (Human), UniProt P03372). The experiment in a line: Breast Cancer Cell ERa High Content Fluorescence Imaging Degradation Assay (Example 901). The format is cell-based. The following applies: 4 hours, plateau of maximal effect, 0% = DMSO, 100% change = 5 nM Fulvestrant. Here is the method:
Where more than one name is associated with a Formula I compound or intermediate, the chemical structure shall define the compound. […] Cell plates were incubated at 37° C., for 4 hours. Fixation and permeabilization were carried out using a Biotek EL406 plate washer and dispenser as follows. […] Well contents were aspirated and washed 3 times with 100 μL/well of PBS. […] Samples were incubated for 2 hours at room temperature. […] Samples were incubated for 2 hours at room temperature. […] Quantitative fluorescence imaging of ESR1 was carried out using a Cellomics Arrayscan V (Thermo). […] Channel 1 (DNA stain) was used to define the nuclear region (Circ). […] The “Robust Fit” method was used to define the inflexion point of curve (EC50) and the plateau of the maximal effect (Sinf).

For another test, the system named is immature rat uterus. The experiment in a line: Immature Uterine Wet Weight Assay, agonist mode (Example 906). The class given is in vivo. The conditions noted are these: dosed PO, QDx3, uterine wet weight:body weight ratio, endometrial height. On the procedure:
All of the exemplary Formula I compounds in Tables 1 and 2 were made and characterized by LCMS [M+H]^+ (liquid chromatography mass spectroscopy) with detection of parent ion. […] ER-alpha MCF7 HCS Sinf (%) values in Table 1 were measured by the Breast Cancer Cell ERa High Content Fluorescence Imaging Degradation Assay of Example 901. […] RTP, 25 (3):226-31). […] Where more than one name is associated with a Formula I compound or intermediate, the chemical structure shall define the compound. Female immature CD-IGS rats (21 days old upon arrival) are treated for three days. Animals are dosed daily for three days. […] For Agonist Mode, Vehicle or test compound is administered orally by gavage. On the fourth day 24 hours after dose, plasma is collected for pharmacokinetic analysis. Immediately following plasma collection, the animals are euthanized and the uterus removed and weighed. […] Stained tissues are analyzed and read by a board certified pathologist. Uteri and ovaries from 4 animals per group are flash frozen in liquid N2 for transcriptional analysis, examining a select set of genes modulated by the estrogen receptor. […] U.S. Pat. […] Vehicle and Vehicle plus ethynyl estradiol (EE). All compounds were dosed PO, QDx3. Uterine Wet Weight (UWW): Body Weight ratios were calculated. The mean Endometrial Height of Uterine cross sections were measured by histology. Endometrial cell height was measured from the basement membrane to the apical (luminal) surface using a slide viewer at 20× magnification. Obliquely cut areas were avoided.

The next test relates to ER-alpha MCF7. Nature of the test: ER-alpha MCF7 HCS EC50; stated as measured by in vitro cell proliferation assays of Examples 902 and 903. The class given is cell-based. The following applies: Homo sapiens, MCF7, MCF7 cells; Table 1. A digest of the protocol: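 MCF7 cells seeded 1000-2000 cells/well for 16 h, then treated with nine-point 1:2 DMSO dilution series in quadruplicate at 37 °C, 5% CO2 for 4 days. Viable cells quantified by CellTiter-Glo ATP luminescence; EC50 calculated. Controls: fulvestrant at final 100 nM, DMSO 0.2% v/v.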

estrogen receptor alpha (ESR1) in MCF7 breast cancer cells, sequence (P03372 whole entry): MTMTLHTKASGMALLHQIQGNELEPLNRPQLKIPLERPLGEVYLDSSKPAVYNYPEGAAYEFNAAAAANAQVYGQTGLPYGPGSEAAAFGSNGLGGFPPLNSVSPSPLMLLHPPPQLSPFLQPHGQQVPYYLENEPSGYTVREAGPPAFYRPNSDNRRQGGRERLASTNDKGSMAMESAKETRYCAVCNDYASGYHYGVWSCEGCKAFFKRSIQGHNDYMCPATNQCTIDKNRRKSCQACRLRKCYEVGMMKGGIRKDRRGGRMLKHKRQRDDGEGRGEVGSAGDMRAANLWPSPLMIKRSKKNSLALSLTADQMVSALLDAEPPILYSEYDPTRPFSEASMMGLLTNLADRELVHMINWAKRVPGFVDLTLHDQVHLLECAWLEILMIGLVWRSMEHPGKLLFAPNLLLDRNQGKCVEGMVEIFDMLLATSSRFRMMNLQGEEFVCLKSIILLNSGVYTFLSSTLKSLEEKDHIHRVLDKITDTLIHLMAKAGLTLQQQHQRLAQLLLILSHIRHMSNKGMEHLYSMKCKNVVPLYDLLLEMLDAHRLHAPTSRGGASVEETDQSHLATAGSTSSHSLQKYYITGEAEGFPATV

As to `C[C@@H]1Cc2c([nH]c3ccccc23)[C@@H](c2c(F)cc(OC3CN(CCCF)C3)cc2F)N1CC(C)(C)F` [Example 101, (1R,3R)-1-(2,6-difluoro-4-((1-(3-fluoropropyl)azetidin-3-yl)oxy)phenyl)-2-(2-fluoro-2-methylpropyl)-3-methyl-2,3,4,9-tetrahydro-1H-pyrido[3,4-b]indole], the “ER-alpha MCF7 HCS Sinf (%)” value in test [1] is −100%. Moreover, the “agonist mode UWW assay: antagonist / partial agonist” value in the test with immature rat uterus is “antagonists”.

In the case of `C[C@@H]1Cc2c([nH]c3ccccc23)[C@@H](c2ccc(OCCN3CC(CF)C3)cc2F)N1CC(C)(C)F` [Example 120, (1R,3R)-2-(2-fluoro-2-methylpropyl)-1-(2-fluoro-4-(2-(3-(fluoromethyl)azetidin-1-yl)ethoxy)phenyl)-3-methyl-2,3,4,9-tetrahydro-1H-pyrido[3,4-b]indole], in the test on ER-alpha MCF7, the EC50 (usually the concentration at which the effect is half-maximal) turned out to be 0.0562 nM. For the same molecule, in test [1], the “ER-alpha MCF7 HCS Sinf (%)” value is on record as −96.3%.

As for `C[C@@H]1Cc2c([nH]c3ccccc23)[C@@H](c2c(F)cc(/C=C/C(=O)O)cc2F)N1CC(C)(C)F` [AZD9496, reference compound], the “agonist mode UWW assay: antagonist / partial agonist” value in the test on immature rat uterus is “partial agonist”.

For the molecule `C[C@@H]1Cc2c([nH]c3ccccc23)[C@@H](c2c(F)cc(OCCN3CC(CF)C3)cc2F)N1CC(C)(C)F` [Example 102, (1R,3R)-1-(2,6-difluoro-4-(2-(3-(fluoromethyl)azetidin-1-yl)ethoxy)phenyl)-2-(2-fluoro-2-methylpropyl)-3-methyl-2,3,4,9-tetrahydro-1H-pyrido[3,4-b]indole], the “ER-alpha MCF7 HCS Sinf (%)” value in test [1] is on record as −98.9%. For the same molecule, the “agonist mode UWW assay: antagonist / partial agonist” value in the test on immature rat uterus is reported as “antagonists”.

For the molecule `C[C@@H]1Cc2c([nH]c3ccccc23)[C@@H](c2c(F)cc(OCCN3CC(CF)C3)cc2F)N1C(=O)C(C)(C)O` [Example 122, 1-((1R,3R)-1-(2,6-difluoro-4-(2-(3-(fluoromethyl)azetidin-1-yl)ethoxy)phenyl)-3-methyl-3,4-dihydro-1H-pyrido[3,4-b]indol-2(9H)-yl)-2-hydroxy-2-methylpropan-1-one], the EC50 in the test on ER-alpha MCF7 worked out at 1.4 nM. For the same molecule, the “ER-alpha MCF7 HCS Sinf (%)” value in test [1] is on record as −97.8%.

As for `CC(C)C(=O)N1C(c2c(F)cc(OCCN3CC(CF)C3)cc2F)c2[nH]c3ccccc3c2CC1(C)C` (stereo not drawn) [Example 125, 1-(1-(2,6-difluoro-4-(2-(3-(fluoromethyl)azetidin-1-yl)ethoxy)phenyl)-3,3-dimethyl-3,4-dihydro-1H-pyrido[3,4-b]indol-2(9H)-yl)-2-methylpropan-1-one], the EC50 in the test on ER-alpha MCF7 stood at 74.4 nM. The “ER-alpha MCF7 HCS Sinf (%)” value in test [1] is −90%.

Regarding `C[C@@H]1Cc2c([nH]c3ccccc23)[C@@H](c2c(F)cc(OCCN3CC(CF)C3)cc2F)N1C1COC1` [Example 116, (1R,3R)-1-(2,6-difluoro-4-(2-(3-(fluoromethyl)azetidin-1-yl)ethoxy)phenyl)-3-methyl-2-(oxetan-3-yl)-2,3,4,9-tetrahydro-1H-pyrido[3,4-b]indole], the EC50 with ER-alpha MCF7 was 41.4 nM. For the same molecule, the “ER-alpha MCF7 HCS Sinf (%)” value in test [1] is −85%.

Take `C[C@@H]1Cc2c([nH]c3ccccc23)[C@@H](c2c(F)cc(OCCN3CC(CF)C3)cc2F)N1C(=O)C1CC(O)C1` (stereo partly drawn) [Example 124, ((1R,3R)-1-(2,6-difluoro-4-(2-(3-(fluoromethyl)azetidin-1-yl)ethoxy)phenyl)-3-methyl-3,4-dihydro-1H-pyrido[3,4-b]indol-2(9H)-yl)((1s,3S)-3-hydroxycyclobutyl) methanone]: in the test with ER-alpha MCF7, the EC50 is 135 nM. For the same molecule, the “ER-alpha MCF7 HCS Sinf (%)” value in test [1] was −75%.
